In article PMC3813382 (The Journal of General Physiology, 2013):
Numbering of substitutions follows the chain as printed.

Columns and labels:
A266G Slo2.1 channels = biological target: T1, A266G Slo2.1 channels (Homo sapiens, UniProt Q6UVM3, A266G); assay: Activation of ISlo2.1 by NFA, two-electrode voltage clamp in oocytes; assay type: cell-based
T1 sequence (Q6UVM3 1-1135 A266G): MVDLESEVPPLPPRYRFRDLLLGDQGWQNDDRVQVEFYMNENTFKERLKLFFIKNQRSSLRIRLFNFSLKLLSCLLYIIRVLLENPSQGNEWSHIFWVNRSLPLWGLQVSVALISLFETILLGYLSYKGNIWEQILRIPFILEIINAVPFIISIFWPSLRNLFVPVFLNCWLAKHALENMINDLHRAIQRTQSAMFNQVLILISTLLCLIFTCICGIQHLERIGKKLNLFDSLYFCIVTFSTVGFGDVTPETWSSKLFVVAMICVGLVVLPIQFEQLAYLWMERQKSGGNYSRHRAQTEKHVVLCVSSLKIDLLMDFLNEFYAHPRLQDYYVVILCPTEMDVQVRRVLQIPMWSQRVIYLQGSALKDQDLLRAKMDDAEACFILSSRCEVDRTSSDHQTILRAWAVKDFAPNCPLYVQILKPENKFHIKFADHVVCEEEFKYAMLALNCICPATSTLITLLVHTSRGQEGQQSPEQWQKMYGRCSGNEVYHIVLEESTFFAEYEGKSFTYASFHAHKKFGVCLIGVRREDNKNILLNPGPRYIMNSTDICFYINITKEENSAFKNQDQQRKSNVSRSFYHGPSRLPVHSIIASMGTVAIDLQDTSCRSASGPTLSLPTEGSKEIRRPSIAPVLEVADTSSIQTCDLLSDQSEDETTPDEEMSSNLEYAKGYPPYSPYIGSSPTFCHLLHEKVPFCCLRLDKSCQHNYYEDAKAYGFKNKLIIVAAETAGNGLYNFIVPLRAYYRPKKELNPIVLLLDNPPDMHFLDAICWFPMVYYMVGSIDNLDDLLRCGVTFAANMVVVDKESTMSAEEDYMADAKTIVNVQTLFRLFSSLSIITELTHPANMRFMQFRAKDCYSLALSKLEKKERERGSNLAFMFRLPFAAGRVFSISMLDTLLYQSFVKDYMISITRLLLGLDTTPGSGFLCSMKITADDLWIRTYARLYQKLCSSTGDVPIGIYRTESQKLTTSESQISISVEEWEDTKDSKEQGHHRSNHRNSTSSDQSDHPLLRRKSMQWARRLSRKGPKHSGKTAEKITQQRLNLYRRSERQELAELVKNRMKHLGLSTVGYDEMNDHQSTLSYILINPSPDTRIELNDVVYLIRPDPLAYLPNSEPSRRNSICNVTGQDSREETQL

C236A Slo2.1 channels = biological target: T2, C236A Slo2.1 channels (Homo sapiens, UniProt Q6UVM3, C236A); assay: as above; assay type: cell-based; conditions: 1 mM NFA, 0 mV
T2 sequence (Q6UVM3 1-1135 C236A): T1 sequence (Q6UVM3 1-1135 A266G) with C236A, G266A

O=C(O)c1cccnc1Nc1cccc(C(F)(F)F)c1 [NFA, niflumic acid]
EC50 (A266G Slo2.1 channels): 380 ± 30 µM
Hill coefficient nH of NFA activation (A266G Slo2.1 channels; A266G): 1.2 ± 0.03
response of C236A channels to NFA (C236A Slo2.1 channels): insensitive to 1 mM NFA
